Reference: publication PMC8312610, “F4, a collagen XIX-derived peptide, inhibits tumor angiogenesis through αvβ3 and α5β1 integrin interaction” (Cell Adhesion & Migration, 2021)
Positions of bridges follow the written chain, without caps; N, C: chain ends. No end group written: not given here.

How the values were obtained:
[1] = system: HUVEC; test: Capillary (pseudo-)tube formation on Matrigel; assay type: cell-based, human
Protocol: Figure 2. NC1(XIX) and F4 inhibit endothelial cell in vitro pseudotube formation. 50,000 HUVEC were seeded in Matrigel coated well of a 48 well-plate and incubated with or without 40 μM NC1(XIX) or F4. Pseudotube formation was observed and photographed under an inverted microscope after 8 hours (a). The number of segments, of nodes and the total length of pseudotubes were quantified by the ImageJ software, using the Angiogenesis Analyzer tool (b). The values are the means ± SD (n = 8 replicates). *** p < 0.001). The experiment was repeated three times (N = 3)
Human Umbilical Vein Endothelial Cells (HUVEC) (Ref C-12253) were purchased from Promocell. They were grown in Endothelial Cell Growth Medium (ECGM) (Promocell, Ref C-22110: Basal medium supplemented with 0.02 mL/mL Fetal Calf Serum, 0.004 mL/mL Endothelial Cell Growth Supplement, 0.1 ng/mL Epidermal Growth Factor (recombinant human), 1 ng/mL Basic Fibroblast Growth Factor (recombinant human), 90 μg/mL Heparin, 1 μg/mL Hydrocortisone) at +37°C in a humid atmosphere containing 5% CO2. PromoCell Detach Kit was used for the detachment of HUVEC according to the manufacturer’s protocols (Promocell, ref C-41200).
The ability of HUVEC to form pseudo-tubes was investigated on Matrigel (Corning, ref 356237). Matrigel was loaded into 48-well plate and allowed to polymerize at +37°C for 2 h. 50,000 HUVEC suspended in Basal media supplemented with 0.004 mL/mL Endothelial Cell Growth Supplement, 90 μg/mL Heparin, 1 μg/mL Hydrocortisone with or without 40 μM NC1(XIX) or F4 were seeded into each well. Plates were incubated at +37°C in a humid atmosphere containing 5% CO2, 95% for 8 h. The formation of the capillary network was then imaged under an inverted light microscope. Quantitative evaluation of the capillary network was performed using the angiogenesis analyzer tool of ImageJ analysis software. The number of nodes, of segments and the total length of the capillary network were determined.

[2] = system: αvβ3 integrin; test: Solid phase assay, direct binding to αvβ3; parameters: species or system human; settings: solid phase assays
Description: Figure 5. F4 directly binds to αvβ3 and α5β1 integrins. Direct interaction between αvβ3 or α5β1 integrin and F4 was studied using solid phase assays as described in the material and method section. The F4 peptide was biotinylated to allow its detection using the streptavidin-peroxidase complex. Different conditions were used. (a-b) The amounts of coated αvβ3 (a) or α5β1 integrin (b) were increased while biotinylated F4 peptide was kept constant. (c-d) The concentration of biotinylated F4 peptide was increased while coated amounts of αvβ3 (c) or α5β1 (d) integrins were kept constant. (e-f) Competitive assays were performed using increasing concentrations of F4 peptide while biotinylated-F4 peptide and αvβ3 (e) or α5β1 (f) integrins were kept constant. […]
Wells of a 96-well plate were coated with α5β1 (ref. 3230-A5-050, R&D systems) and/or αvβ3 integrin (ref. 3050-AV-050, R&D systems) at different concentrations ranging from 26 × 10^−7 mol/L to 0.1 × 10^−7 mol/L (100 μL per well in PBS). […] The intensity of the yellow coloration was measured at 450 nm with an LB940 spectrophotometer (Berthold Technologies).
The optimum integrin amount for the coating was determined using the above protocol and the optimum ligand concentration was sought using different dilutions of the biotinylated-F4 peptide ranging from 20.8 × 10^−4 to 0.16 × 10^−4 mol/L.

[3] = system: α5β1 integrin; test: Solid phase competition assay with biotinylated-F4, α5β1; assay type: binding, human; settings: unlabeled F4, molar ratio 1/0 to 1/125, integrin coated at 26 × 10^−7 mol/L, 90 min, room temperature, N = 2
Description: Figure 5. F4 directly binds to αvβ3 and α5β1 integrins. Direct interaction between αvβ3 or α5β1 integrin and F4 was studied using solid phase assays as described in the material and method section. The F4 peptide was biotinylated to allow its detection using the streptavidin-peroxidase complex. Different conditions were used. (a-b) The amounts of coated αvβ3 (a) or α5β1 integrin (b) were increased while biotinylated F4 peptide was kept constant. (c-d) The concentration of biotinylated F4 peptide was increased while coated amounts of αvβ3 (c) or α5β1 (d) integrins were kept constant. (e-f) Competitive assays were performed using increasing concentrations of F4 peptide while biotinylated-F4 peptide and αvβ3 (e) or α5β1 (f) integrins were kept constant. The solid phase assays were repeated twice (N = 2; n = 2)
Wells of a 96-well plate were coated with α5β1 (ref. 3230-A5-050, R&D systems) and/or αvβ3 integrin (ref. 3050-AV-050, R&D systems) at different concentrations ranging from 26 × 10^−7 mol/L to 0.1 × 10^−7 mol/L (100 μL per well in PBS). The 96-well plate was left overnight at room temperature. The coating was then blocked with TBS containing 5% nonfat dry milk, 1 mM MgCl2 and 1 mM CaCl2 for 2 h at room temperature. […] The intensity of the yellow coloration was measured at 450 nm with an LB940 spectrophotometer (Berthold Technologies). […]

[4] = 40 µM, 8 h, 50,000 HUVEC on Matrigel, ImageJ Angiogenesis Analyzer, p < 0.001 for NC1(XIX) and F4, n = 8, N = 3

Q: With “CNPEDCLYPVSHAHQR (disulfide 1-6 (inferred)) [F4, collagen XIX-derived peptide, released by plasmin from type XIX collagen]” as the sequence, how does the “decrease of the number of nodes vs control” value [1, 4] read?
A: The value was 77%.

Q: And the “decrease of the number of segments vs control” value [1, 4]?
A: Its value is 52%.

Q: What about the “decrease of the total length of capillary tubes vs control” value [1, 4] of the same sequence?
A: The value was 49%.

Q: And the “inhibition of capillary network, F4 compared with NC1(XIX)” value ([1]; 40 µM, 8 h, HUVEC on Matrigel)?
A: Its value is “stronger inhibition of the number of nodes, segments and of the total length of capillary network than NC1(XIX) peptide”.

Q: What about the “inhibition of pseudo-tube formation” value ([1]; 40 µM, 8 h, HUVEC on Matrigel, compared to control) of the same sequence?
A: The value was “strongly inhibited pseudo-tube formation”.

Q: And the “inhibition of VEGF-induced pseudo-tube formation” value ([1]; endothelial cells on Matrigel (abstract))?
A: The value was “inhibited VEGF-induced pseudo-tube formation”.

Q: What about the “anti-angiogenic effect on pseudo-tube formation, F4 compared with NC1(XIX) (discussion)” value ([1]; in vitro) of the same sequence?
A: The value was “even greater than the whole NC1(XIX) domain”.

Q: What about the “direct binding to αvβ3 (conclusion)” value [2] of the same sequence?
A: Its value is “binds to both αvβ3 and α5β1 integrins in a direct manner”.

Q: And the “competition with biotinylated-F4 binding to α5β1” value [3]?
A: The value was “decreased consequently”.
